Drawing on patent publication US11292796B2 (SIGNAL PHARMACEUTICALS, LLC, priority 2008, dated 2022), this text covers IC50 for 32 molecules.

Each structure is given as a SMILES string.

The target of this test is T1, mTOR (Homo sapiens, UniProt P42345).
T1 construct: purchased Invitrogen PR8683A
T1 sequence (P42345 1360-2549 limits assumed): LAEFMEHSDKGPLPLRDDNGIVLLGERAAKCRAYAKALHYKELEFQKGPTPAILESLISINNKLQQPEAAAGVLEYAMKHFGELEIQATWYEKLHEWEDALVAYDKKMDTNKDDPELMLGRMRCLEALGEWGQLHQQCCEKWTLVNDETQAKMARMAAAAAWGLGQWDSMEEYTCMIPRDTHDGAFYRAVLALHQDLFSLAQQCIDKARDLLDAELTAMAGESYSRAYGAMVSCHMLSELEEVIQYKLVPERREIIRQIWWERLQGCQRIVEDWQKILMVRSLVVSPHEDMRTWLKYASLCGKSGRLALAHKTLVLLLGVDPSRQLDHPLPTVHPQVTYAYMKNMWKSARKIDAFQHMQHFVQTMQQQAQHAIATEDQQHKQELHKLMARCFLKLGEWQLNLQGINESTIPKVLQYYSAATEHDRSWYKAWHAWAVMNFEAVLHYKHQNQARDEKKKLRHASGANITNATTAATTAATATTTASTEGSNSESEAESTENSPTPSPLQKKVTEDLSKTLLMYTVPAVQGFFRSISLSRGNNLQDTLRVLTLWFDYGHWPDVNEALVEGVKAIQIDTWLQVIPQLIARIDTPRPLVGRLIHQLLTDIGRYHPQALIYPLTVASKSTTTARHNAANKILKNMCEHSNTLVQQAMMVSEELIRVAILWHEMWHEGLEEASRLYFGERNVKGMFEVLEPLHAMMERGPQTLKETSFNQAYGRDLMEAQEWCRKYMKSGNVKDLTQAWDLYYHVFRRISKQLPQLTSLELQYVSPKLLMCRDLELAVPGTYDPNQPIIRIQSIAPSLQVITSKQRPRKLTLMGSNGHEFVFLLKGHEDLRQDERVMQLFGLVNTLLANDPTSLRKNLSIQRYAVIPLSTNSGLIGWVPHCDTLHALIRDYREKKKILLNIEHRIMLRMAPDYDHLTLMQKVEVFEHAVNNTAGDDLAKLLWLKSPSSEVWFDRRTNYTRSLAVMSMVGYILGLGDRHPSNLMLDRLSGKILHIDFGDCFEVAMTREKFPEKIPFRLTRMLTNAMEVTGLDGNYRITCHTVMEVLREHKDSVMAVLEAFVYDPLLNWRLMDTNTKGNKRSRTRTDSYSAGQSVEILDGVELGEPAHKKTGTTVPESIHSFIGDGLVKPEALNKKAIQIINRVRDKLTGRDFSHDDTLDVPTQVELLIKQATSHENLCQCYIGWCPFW
The test is described as follows: mTOR HTR-FRET assay. As to conditions: read-out: Act. Level (IC50 in mTor HTR-FRET assay). It is filed as biochemical. How it is done: The following is an example of an assay that can be used to determine the mTOR inhibitory activity of a test compound. Heteroaryl Compounds were dissolved in DMSO and prepared as 10 mM stocks and diluted appropriately for the experiments. Reagents were prepared as follows:
“Simple TOR buffer” (used to dilute high glycerol TOR fraction): 10 mM Tris pH 7.4, 100 mM NaCl, 0.1% Tween-20, 1 mM DTT. Invitrogen mTOR (cat #PR8683A) was diluted in this buffer to an assay concentration of 0.200 μg/mL.
To 20 μL of the Simple mTor buffer is added 0.5 μL of test compound in DMSO. To initiate the reaction 5 μL of ATP/Substrate solution was added to 20 μL of the Simple TOR buffer solution (control) and to the compound solution prepared above.
Turning to `CO[C@H]1CC[C@H](CN2CC(=O)Nc3ncc(-c4ccc(-c5nc[nH]n5)nc4)nc32)CC1` [Example 5], the IC50 (usually the concentration that gives 50% inhibition) was 0.005 to 250 nM.

With `CO[C@H]1CC[C@@H](CN2CC(=O)Nc3ncc(-c4ccc(-c5nc[nH]n5)nc4)nc32)CC1` [Example 7], the IC50 lay in the range of 0.005 to 250 nM.

Consider `CO[C@H]1CC[C@H](N2CC(=O)Nc3ncc(-c4ccc(-c5nc[nH]n5)nc4)nc32)CC1` [Example 12], for which the IC50 was in the range of 0.005 to 250 nM.

Regarding `COCCN1CC(=O)Nc2ncc(-c3ccc(-c4nc[nH]n4)nc3)nc21` [Example 16], the IC50 was 0.005 to 250 nM.

Take `O=C1CN(C2CCOCC2)c2nc(-c3ccc(-c4nc[nH]n4)nc3)cnc2N1` [Example 21, 6-(6-(1H-1,2,4-triazol-3-yl)pyridin-3-yl)-4-(tetrahydro-2H-pyran-4-yl)-3,4-dihydropyrazino[2,3-b]pyrazin-2(1H)-one]: the IC50 is 0.005 to 250 nM.

Regarding `CCN1CC(=O)Nc2ncc(-c3ccc(-c4nc[nH]n4)nc3)nc21` [Example 22, 6-(6-(1H-1,2,4-triazol-3-yl)pyridin-3-yl)-4-ethyl-3,4-dihydropyrazino[2,3-b]pyrazin-2(1H)-one], the IC50 lay within 0.005 to 250 nM.

With `Cc1cc(-c2nc[nH]n2)c(F)cc1-c1cnc2c(n1)N([C@H]1CC[C@H](O)CC1)CC(=O)N2` [Example 23, 6-(5-fluoro-2-methyl-4-(1H-1,2,4-triazol-3-yl)phenyl)-4-(trans-4-hydroxycyclohexyl)-3,4-dihydropyrazino[2,3-b]pyrazin-2(1H)-one], the IC50 lay in the range of 0.005 to 250 nM.

For the molecule `Cc1cc(-c2nc[nH]n2)c(F)cc1-c1cnc2c(n1)N(C1CCOCC1)CC(=O)N2` [Example 24, 6-(5-fluoro-2-methyl-4-(1H-1,2,4-triazol-3-yl)phenyl)-4-(tetrahydro-2H-pyran-4-yl)-3,4-dihydropyrazino[2,3-b]pyrazin-2(1H)-one], the IC50 lay within 0.005 to 250 nM.

For `Cc1cc(-c2nc[nH]n2)c(F)cc1-c1cnc2c(n1)N(C(C)C)CC(=O)N2` [Example 25, 6-(5-fluoro-2-methyl-4-(1H-1,2,4-triazol-3-yl)phenyl)-4-isopropyl-3,4-dihydropyrazino[2,3-b]pyrazin-2(1H)-one], the IC50 lay within 0.005 to 250 nM.

In the case of `CCN1CC(=O)Nc2ncc(-c3cc(F)c(-c4nc[nH]n4)cc3C)nc21` [Example 26, 4-ethyl-6-(5-fluoro-2-methyl-4-(1H-1,2,4-triazol-3-yl)phenyl)-3,4-dihydropyrazino[2,3-b]pyrazin-2(1H)-one], the IC50 is 0.005 to 250 nM.

On to `Cc1c(-c2cnc3c(n2)N(C2CCOCC2)CC(=O)N3)ccc(-c2nc[nH]n2)c1F` [Example 27, 6-(3-fluoro-2-methyl-4-(1H-1,2,4-triazol-3-yl)phenyl)-4-(tetrahydro-2H-pyran-4-yl)-3,4-dihydropyrazino[2,3-b]pyrazin-2(1H)-one], for which the IC50 fell in the range of 0.005 to 250 nM.

`CO[C@H]1CC[C@@H](N2CC(=O)Nc3ncc(-c4ccc(-c5nc[nH]n5)c(F)c4C)nc32)CC1` [Example 28, 6-(3-fluoro-2-methyl-4-(1H-1,2,4-triazol-3-yl)phenyl)-4-(cis-4-methoxycyclohexyl)-3,4-dihydropyrazino[2,3-b]pyrazin-2(1H)-one]: the IC50 fell in the range of 0.005 to 250 nM.

Take `CO[C@H]1CC[C@H](N2CC(=O)Nc3ncc(-c4ccc(-c5nc[nH]n5)c(F)c4C)nc32)CC1` [Example 29, 6-(3-fluoro-2-methyl-4-(1H-1,2,4-triazol-3-yl)phenyl)-4-(trans-4-methoxycyclohexyl)-3,4-dihydropyrazino[2,3-b]pyrazin-2(1H)-one]: the IC50 fell in the range of 0.005 to 250 nM.

`COCCN1CC(=O)Nc2ncc(-c3cnc(-c4nc[nH]n4)cc3C)nc21` [Example 30, 4-(2-methoxyethyl)-6-(4-methyl-6-(1H-1,2,4-triazol-3-yl)pyridin-3-yl)-3,4-dihydropyrazino[2,3-b]pyrazin-2(1H)-one]: the IC50 fell in the range of 0.005 to 250 nM.

As to `O=C1CN(CCC2CCOCC2)c2nc(-c3cccc(-c4ncn[nH]4)c3)cnc2N1` [Example 31, 6-(3-(1H-1,2,4-triazol-5-yl)phenyl)-4-(2-(tetrahydro-2H-pyran-4-yl)ethyl)-3,4-dihydropyrazino[2,3-b]pyrazin-2(1H)-one], the IC50 lay in the range of 1000 to 10000 nM.

In the case of `COCCN1CC(=O)Nc2ncc(-c3cnc(C(N)=O)cc3C)nc21` [Example 32, 5-(8-(2-methoxyethyl)-6-oxo-5,6,7,8-tetrahydropyrazino[2,3-b]pyrazin-2-yl)-4-methylpicolinamide], the IC50 is 0.005 to 250 nM.

For the molecule `NC(=O)c1cccc(-c2cnc3c(n2)N(CCC2CCOCC2)CC(=O)N3)c1` [Example 33, 3-(6-oxo-8-(2-(tetrahydro-2H-pyran-4-yl)ethyl)-5,6,7,8-tetrahydropyrazino[2,3-b]pyrazin-2-yl)benzamide], the IC50 lay within 500 to 1000 nM.

Regarding `N#Cc1cccc(-c2cnc3c(n2)N(CCC2CCOCC2)CC(=O)N3)c1` [Example 34, 3-(6-oxo-8-(2-(tetrahydro-2H-pyran-4-yl)ethyl)-5,6,7,8-tetrahydropyrazino[2,3-b]pyrazin-2-yl)benzonitrile], the IC50 fell in the range of 500 to 1000 nM.

With `CO[C@H]1CC[C@H](N2CC(=O)Nc3ncc(-c4cnc(C(N)=O)cc4C)nc32)CC1` [Example 35, 5-(S-(trans-4-methoxycyclohexyl)-6-oxo-5,6,7,8-tetrahydropyrazino[2,3-b]pyrazin-2-yl)-4-methylpicolinamide], the IC50 lay within 0.005 to 250 nM.

For the molecule `O=C1CN(CCC2CCOCC2)c2nc(-c3cnc4nc[nH]c4c3)cnc2N1` [Example 36, 6-(1H-imidazo[4,5-b]pyridin-6-yl)-4-(2-(tetrahydro-2H-pyran-4-yl)ethyl)-3,4-dihydropyrazino[2,3-b]pyrazin-2(1H)-one], the IC50 lay within 500 to 1000 nM.

In the case of `O=C1CN(CCC2CCOCC2)c2nc(-c3ccc4cn[nH]c4c3)cnc2N1` [Example 37, 6-(1H-indazol-6-yl)-4-(2-(tetrahydro-2H-pyran-4-yl)ethyl)-3,4-dihydropyrazino[2,3-b]pyrazin-2(1H)-one], the IC50 was in the range of 1000 to 10000 nM.

In the case of `CO[C@H]1CC[C@@H](N2CC(=O)Nc3ncc(-c4ccc(-c5nnc[nH]5)nc4C)nc32)C1` [Example 38, 4-((1R,3S)-3-methoxycyclopentyl)-6-(2-methyl-6-(4H-1,2,4-triazol-3-yl)pyridin-3-yl)-3,4-dihydropyrazino[2,3-b]pyrazin-2(1H)-one], the IC50 fell in the range of 0.005 to 250 nM.

Consider `CO[C@@H]1CC[C@H](N2CC(=O)Nc3ncc(-c4ccc(-c5nnc[nH]5)nc4C)nc32)C1` [Example 39, 4-((1S,3R)-3-methoxycyclopentyl)-6-(2-methyl-6-(4H-1,2,4-triazol-3-yl)pyridin-3-yl)-3,4-dihydropyrazino[2,3-b]pyrazin-2(1H)-one], for which the IC50 lay within 0.005 to 250 nM.

Take `CO[C@@H]1CC[C@@H](N2CC(=O)Nc3ncc(-c4ccc(-c5nnc[nH]5)nc4C)nc32)C1` [Example 40, 4-((1R,3R)-3-methoxycyclopentyl)-6-(2-methyl-6-(4H-1,2,4-triazol-3-yl)pyridin-3-yl)-3,4-dihydropyrazino[2,3-b]pyrazin-2(1H)-one]: the IC50 is 0.005 to 250 nM.

Regarding `CO[C@H]1CC[C@H](N2CC(=O)Nc3ncc(-c4ccc(-c5nnc[nH]5)nc4C)nc32)C1` [Example 41, 4-((1S,3S)-3-methoxycyclopentyl)-6-(2-methyl-6-(4H-1,2,4-triazol-3-yl)pyridin-3-yl)-3,4-dihydropyrazino[2,3-b]pyrazin-2(1H)-one], the IC50 is 0.005 to 250 nM.

As to `O=C1CN(CCC2CCOCC2)c2nc(-c3cnc4[nH]ccc4c3)cnc2N1` [Example 43, 6-(1H-pyrrolo[2,3-b]pyridin-5-yl)-4-(2-(tetrahydro-2H-pyran-4-yl)ethyl)-3,4-dihydropyrazino[2,3-b]pyrazin-2(1H)-one], the IC50 fell in the range of 0.005 to 250 nM.

For the molecule `O=C1CN(CCC2CCOCC2)c2nc(-c3ccc4cc[nH]c4c3)cnc2N1` [Example 44, 6-(1H-indol-6-yl)-4-(2-(tetrahydro-2H-pyran-4-yl)ethyl)-3,4-dihydropyrazino[2,3-b]pyrazin-2(1H)-one], the IC50 lay in the range of 250 to 500 nM.

Regarding `CO[C@H]1CC[C@@H](CN2CC(=O)Nc3ncc(-c4ccc(-c5nnc[nH]5)nc4C)nc32)C1` [Example 46, 4-(((1R,3S)-3-methoxycyclopentyl)methyl)-6-(2-methyl-6-(4H-1,2,4-triazol-3-yl)pyridin-3-yl)-3,4-dihydropyrazino[2,3-b]pyrazin-2(1H)-one], the IC50 is 0.005 to 250 nM.

Consider `CO[C@@H]1CC[C@H](CN2CC(=O)Nc3ncc(-c4ccc(-c5nnc[nH]5)nc4C)nc32)C1` [Example 47, 4-(((1S,3R)-3-methoxycyclopentyl)methyl)-6-(2-methyl-6-(4H-1,2,4-triazol-3-yl)pyridin-3-yl)-3,4-dihydropyrazino[2,3-b]pyrazin-2(1H)-one], for which the IC50 was 0.005 to 250 nM.

Regarding `Cc1c(-c2cnc3c(n2)N(CCC2CCOCC2)CC(=O)N3)ccc(-c2nnc[nH]2)c1F` [Example 48, 6-(3-fluoro-2-methyl-4-(4H-1,2,4-triazol-3-yl)phenyl)-4-(2-(tetrahydro-2H-pyran-4-yl)ethyl)-3,4-dihydropyrazino[2,3-b]pyrazin-2(1H)-one], the IC50 fell in the range of 0.005 to 250 nM.

Take `COCCN1CC(=O)Nc2ncc(-c3ccc(-c4nnc[nH]4)c(F)c3C)nc21` [Example 49, 6-(3-fluoro-2-methyl-4-(4H-1,2,4-triazol-3-yl)phenyl)-4-(2-methoxyethyl)-3,4-dihydropyrazino[2,3-b]pyrazin-2(1H)-one]: the IC50 was in the range of 0.005 to 250 nM.

For `Cc1cc(-c2nnc[nH]2)ncc1-c1cnc2c(n1)N(CC1CCOCC1)C(C)(C)C(=O)N2` [Example 50, 3,3-dimethyl-6-(4-methyl-6-(4H-1,2,4-triazol-3-yl)pyridin-3-yl)-4-((tetrahydro-2H-pyran-4-yl)methyl)-3,4-dihydropyrazino[2,3-b]pyrazin-2(1H)-one], the IC50 was in the range of 0.005 to 250 nM.
